Experimental data: US5380710A, “Pharmaceutical compositions containing ACTH (1-24) for the therapy of shock conditions and respiratory and cardiocirculatory insufficiences” (priority 1985, dated 1995)
Where a name gives a salt, the structure may show the parent alone.

Tested on: severe hypotension induced by bleeding (hypovolemic shock), intact rats
Experiment: Hypovolemic shock by bleeding in intact rats: mean arterial pressure and survival
Format: in vivo, Wistar rats
Experimental: Intact and adrenalectomized female Wistar rats (Nossan, Correzzano, Milano, Italy) weighing 250 to 300 g, and intact male Beagle dogs (S. Morini, S. Polo d'Enza, Reggio Emilia, Italy) weighing 10 to 12 kg were used. Following anesthetization and heparinization a common carotid artery and an iliac vein were cannulated in rats, while in dogs a femoral artery and vein were used. Arterial blood pressure was recorded by means of a pressure transducer (Statham P23 Db) connected to a polygraph (Battaglia-Rangoni, Bologna, Italy). In some rats, trachea was cannulated and respiration was recorded by means of a transducer (Statham 10272) connected to the same polygraph. Hypovolemic shock was produced by intermittently withdrawing blood from the venous catheter until mean arterial pressure fell to 16-30 mm Hg. In rats, the volume of blood removed was 2-2.5 ml per 100 g of body weight and approximated to, or even exceeded, 50% of the estimated total blood volume; in dogs, the volume of blood removed was 50-60 ml per kg of body weight. Following bleeding and mean blood pressure stabilization in the range of 16-30 mm Hg, animals were given intravenous bolus of either ACTH (1-24) or naloxone.HCl.

Compound: C=CCN1CC[C@]23c4c5ccc(O)c4O[C@H]2C(=O)CC[C@@]3(O)[C@H]1C5 [Naloxone.HCl, naloxone.HCl]
- Mean arterial pressure before bleeding (intact rats (5), Naloxone.HCl 1 μg/kg i.v. group, baseline before treatment, m ± S.E.): 64,60 ± 4,70 mm Hg
- Mean arterial pressure after bleeding (intact rats (5), Naloxone.HCl 1 μg/kg i.v. group, before treatment, m ± S.E.): 22,00 ± 3,15 mm Hg
- No. of deaths 60 min. after treatment (intact rats (5), bled, 1 μg/kg i.v.): 0
- Mean arterial pressure 15-30 min. after treatment (intact rats (5), bled, 1 μg/kg i.v., m ± S.E.): 58,20 ± 6,12 mm Hg
- Effect on blood pressure after bleeding (rats, bled, 1 mg/kg i.v., within 30 minutes): completely restored blood pressure
